Source: US20230167467A1, “METHODS AND COMPOSITIONS FOR THE PRODUCTION OF ISOBUTENE” (University of Alaska Anchorage, priority 2020, published 2023)

Tested on: Engineered strains of E. coli
Format: cell-based
[1] = after solvent exposure, vs positive control

CC(C)CO [isobutanol]
expression of RNAse adapter protein rapZ: downregulation | expression of accBC (fatty acid biosynthesis): downregulated | expression of adiA: downregulated | expression of bssRS (decreasing biofilm material): upregulated | expression of chaperone genes groLS and dnaJK: increased expression | expression of gadABCE (acid resistance via GABA production): downregulated | expression of gatY and marCRAB loci: upregulation | expression of glpABC (glycerol to glycerone phosphate): increased in expression | expression of heat shock proteins and chaperones hslJORUV: upregulation | expression of ibpAB and clpAB (protein protection and repair): increased | expression of marA: upregulated | change in expression of gene adiA [1]: −2.97 ± 0.87 | change in expression of gene adiC [1]: −2.56 ± 1.03 | change in expression of gene adiY [1]: −0.17 ± 0.65 | change in expression of gene bhsA [1]: 4.78 ± 0.60 | change in expression of gene bssR [1]: −1.75 ± 1.29 | change in expression of gene bssS [1]: 4.08 ± 0.84 | change in expression of gene clpA [1]: 2.07 ± 0.63 | change in expression of gene clpB [1]: 4.51 ± 0.69 | change in expression of gene clpP [1]: 0.38 ± 0.59 | change in expression of gene coaA [1]: −3.09 ± 0.90 | change in expression of gene coaD [1]: −1.68 ± 0.97 | change in expression of gene cspA [1]: −4.88 ± 0.58 | change in expression of gene cspB [1]: −5.73 ± 1.38 | change in expression of gene cspC [1]: −3.36 ± 0.94 | change in expression of gene cspD [1]: 1.73 ± 0.58 | change in expression of gene cspE [1]: −1.94 ± 0.64 | change in expression of gene cspF [1]: −3.40 ± 1.07 | change in expression of gene dhaK [1]: 1.05 ± 0.59 | change in expression of gene dhaL [1]: −0.04 ± 0.64 | change in expression of gene dnaJ [1]: 3.71 ± 0.69 | change in expression of gene dnaK [1]: 4.53 ± 0.66 | change in expression of gene fabA [1]: −2.84 ± 0.81 | change in expression of gene fabB [1]: −0.39 ± 0.68 | change in expression of gene fabD [1]: −2.33 ± 0.53 | change in expression of gene flgA [1]: −3.05 ± 1.60 | change in expression of gene flgB [1]: −8.74 ± 1.90 | change in expression of gene flgC [1]: −8.87 ± 2.24 | change in expression of gene flgD [1]: −6.75 ± 2.03 | change in expression of gene flgE [1]: −4.68 ± 1.21 | change in expression of gene flgF [1]: −5.18 ± 1.70 | change in expression of gene flgG [1]: −6.73 ± 1.69 | change in expression of gene flgH [1]: −4.17 ± 1.80 | change in expression of gene gabD [1]: −2.21 ± 1.41 | change in expression of gene gabP [1]: −1.47 ± 1.32 | change in expression of gene gabT [1]: −1.57 ± 1.34 | change in expression of gene gadA [1]: −0.71 ± 0.69 | change in expression of gene gadB [1]: 0.96 ± 0.79 | change in expression of gene gadC [1]: 1.56 ± 0.80 | change in expression of gene gadE [1]: −0.46 ± 0.60 | change in expression of gene gadW [1]: −4.10 ± 0.99 | change in expression of gene gadX [1]: −2.01 ± 0.57 | change in expression of gene gadY [1]: −3.37 ± 0.80 | change in expression of gene glpA [1]: 5.44 ± 0.87 | change in expression of gene glpB [1]: 2.96 ± 0.64 | change in expression of gene glpC [1]: 2.92 ± 0.81 | change in expression of gene groL [1]: 4.05 ± 0.57 | change in expression of gene groS [1]: 4.43 ± 0.50 | change in expression of gene hchA [1]: 3.17 ± 0.60 | change in expression of gene hslJ [1]: 1.12 ± 0.66 | change in expression of gene hslO [1]: 1.72 ± 0.65 | change in expression of gene hslR [1]: 2.12 ± 0.65 | change in expression of gene hslU [1]: 1.52 ± 0.56 | change in expression of gene hslV [1]: 0.88 ± 0.62 | change in expression of gene ibpA [1]: 5.74 ± 1.21 | change in expression of gene ibpB [1]: 6.79 ± 1.50 | change in expression of gene lipA [1]: 0.31 ± 0.60 | change in expression of gene lipB [1]: −2.33 ± 0.69 | change in expression of gene narG [1]: 2.47 ± 0.65 | change in expression of gene narH [1]: 1.99 ± 0.62 | change in expression of gene narI [1]: 0.99 ± 0.94 | change in expression of gene narJ [1]: 1.39 ± 0.69 | change in expression of gene narK [1]: −0.93 ± 0.90 | change in expression of gene potA [1]: −5.42 ± 0.87 | change in expression of gene potB [1]: −2.50 ± 1.32 | change in expression of gene potC [1]: −2.97 ± 1.28 | change in expression of gene pspA [1]: 5.48 ± 0.55 | change in expression of gene pspB [1]: 3.26 ± 0.68 | change in expression of gene rpoA [1]: −0.58 ± 0.44 | change in expression of gene rpoB [1]: −0.72 ± 0.40 | change in expression of gene rpoC [1]: −1.03 ± 0.39 | change in expression of gene rpoD [1]: 1.30 ± 0.70 | change in expression of gene rpoE [1]: −1.10 ± 0.62 | change in expression of gene rpoH [1]: 1.72 ± 0.52 | change in expression of gene rpoN [1]: −1.50 ± 0.49 | change in expression of gene rpoS [1]: 1.73 ± 0.47 | change in expression of gene rpoZ [1]: −0.91 ± 0.54 | change in expression of gene spy [1]: 8.88 ± 0.87 | change in expression of gene tatA [1]: −2.04 ± 0.52 | change in expression of gene tatB [1]: −2.87 ± 0.60 | change in expression of gene tatC [1]: −4.38 ± 1.21 | change in expression of gene tatD [1]: −4.11 ± 1.20 | change in expression of gene tatE [1]: 0.70 ± 0.64 | number of genes with significant changes in expression (vs control, Bon Ferroni corrected p-value<0.05): 831 genes
